# Results taken from PMC2628638, “Catalytic inhibition of topoisomerase II by a novel rationally designed ATP-competitive purine analogue” (BMC Chemical Biology, 2009).
# How the values were obtained:
# HeLa T-Rex cells = assay: Gamma-H2AX In-Cell Western assay (doxorubicin-induced DNA damage); type: cell-based; conditions: Homo sapiens, HeLa; 30 minutes pretreatment, then 1 μM doxorubicin for 2 hours; read-out: IC50, suppression of doxorubicin-induced γH2AX signal
# Description: In-Cell Western analysis was carried out as follows. HeLa T-Rex cells were seeded at the cell density of 15 × 10^3 cells per well in black 96-well plates (Greiner Bio-one Vacuette, St Gallen, Switzerland). The day post-seeding, cells were pretreated with increasing concentrations of either ICRF-193, QAP 1 or vehicle (DMSO) for 30 minutes followed by a 2 hours treatment with 1 μM of doxorubicin, or were only treated with the same concentrations of ICRF-193, QAP 1 or vehicle (DMSO) for 2 hours. Treatments were done in triplicate. […] Finally, cells were washed 4 times with 50 μl per well of PBS containing 0.1% Tween-20 for 3 minutes, liquid was removed and plates were kept at 4°C until reading. γH2AX signals were read using the LI-COR Odyssey Infrared Imager with the Odyssey v1.1 software using the 800 nm channel. Blank values correspond to non-specific γH2AX signal detected in wells without primary antibody staining. […] The resulting values for each sample were normalized to the DNA quantity by measuring the corresponding TO-PRO-3 iodide signals. The TO-PRO-3 iodine signals were detected by using the 700 nm channel. The percentage of γH2AX signal was determined for each concentration of ICRF193 and QAP 1 with or without doxorubicin treatment by setting the value for the treatment with vehicle and 1 μM doxorubicin to 100%. […]
# Axl = Axl (Homo sapiens, UniProt P30530); assay: Radiometric filter binding kinase assay; type: biochemical
# Excerpt: (§1) Based on homology structural models of the target, a purine scaffold was designed interactively using the Macromodel modeling software. The designed purine scaffold was subsequently used as a substructure query to search the Novartis compound collection. Around 50 molecules were retrieved in this manner and screened in an ATPase assay using purified full length tagged human topoisomerase II alpha. […] Subsequently, we carried out kinetic analysis with QAP 1 in order to corroborate the mode of action. […] The data were analyzed by non-linear regression analysis using the equations corresponding to competitive, uncompetitive, and mixed inhibition (see Methods) and a statistical analysis (F-test; p ≤ 0.05) was carried out to identify the best model. […] A linearized representation (Eady-Hofstee) of one of these experiments is depicted in Figure 1D. To confirm the mode of action of QAP 1, inhibition studies were also carried out in the presence of different concentration of the inhibitor at different ATP concentrations and the IC50 values were determined. […] Next, QAP 1 was tested against a panel of kinases in a radiometric assay. With the exception of subtle inhibition of the Ret and c-Src tyrosine kinases no effect of the compound was observed on other kinases in the panel, even at the highest concentration tested (Table 1). Thus, QAP 1 is a relatively potent inhibitor of topoisomerase II ATPase function with fairly good selectivity over various serine/threonine/tyrosine protein kinases. To test if QAP 1 inhibited topoisomerase II DNA strand passage activity, nuclear extracts of HL-60 leukemic cells were incubated with catenated kDNA in the presence of increasing concentrations of QAP 1.
# BRAF-V600E = BRAF-V600E (Homo sapiens, UniProt P15056, V600E); assay: Radiometric filter binding kinase assay; type: biochemical
# Excerpt: as §1
# CDK1/CycB = CDK1/CycB (Homo sapiens, UniProt P06493); assay: Radiometric filter binding kinase assay; type: biochemical
# CDK1/CycB, sequence (P06493 whole entry, species assumed): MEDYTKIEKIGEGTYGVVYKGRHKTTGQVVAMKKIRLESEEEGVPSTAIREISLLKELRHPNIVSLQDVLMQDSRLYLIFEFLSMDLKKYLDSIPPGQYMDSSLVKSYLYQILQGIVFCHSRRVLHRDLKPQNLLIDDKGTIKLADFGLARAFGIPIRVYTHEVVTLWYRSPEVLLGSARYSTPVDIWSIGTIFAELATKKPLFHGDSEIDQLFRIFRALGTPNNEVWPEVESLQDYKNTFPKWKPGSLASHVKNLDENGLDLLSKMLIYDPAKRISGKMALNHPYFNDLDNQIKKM
# CDK1/CycB, sequence (P14635 whole entry partner, species assumed): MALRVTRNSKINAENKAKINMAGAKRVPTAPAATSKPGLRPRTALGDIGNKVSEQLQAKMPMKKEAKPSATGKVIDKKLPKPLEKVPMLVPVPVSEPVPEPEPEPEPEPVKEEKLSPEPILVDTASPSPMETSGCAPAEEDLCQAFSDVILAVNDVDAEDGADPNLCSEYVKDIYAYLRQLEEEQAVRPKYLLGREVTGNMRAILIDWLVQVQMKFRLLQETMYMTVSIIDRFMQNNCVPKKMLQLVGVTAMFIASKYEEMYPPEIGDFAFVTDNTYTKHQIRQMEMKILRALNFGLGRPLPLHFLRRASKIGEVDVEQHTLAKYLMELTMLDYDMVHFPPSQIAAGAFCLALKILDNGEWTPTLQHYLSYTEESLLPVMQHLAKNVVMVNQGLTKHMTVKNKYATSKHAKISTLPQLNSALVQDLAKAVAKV
# Excerpt: as §1
# EphB4 = EphB4 (Homo sapiens, UniProt P54760); assay: Radiometric filter binding kinase assay; type: biochemical
# Excerpt: as §1
# FGFR3-K560E = assay: Radiometric filter binding kinase assay; type: biochemical
# FGFR3-K560E, sequence (P22607 397-806 K560E): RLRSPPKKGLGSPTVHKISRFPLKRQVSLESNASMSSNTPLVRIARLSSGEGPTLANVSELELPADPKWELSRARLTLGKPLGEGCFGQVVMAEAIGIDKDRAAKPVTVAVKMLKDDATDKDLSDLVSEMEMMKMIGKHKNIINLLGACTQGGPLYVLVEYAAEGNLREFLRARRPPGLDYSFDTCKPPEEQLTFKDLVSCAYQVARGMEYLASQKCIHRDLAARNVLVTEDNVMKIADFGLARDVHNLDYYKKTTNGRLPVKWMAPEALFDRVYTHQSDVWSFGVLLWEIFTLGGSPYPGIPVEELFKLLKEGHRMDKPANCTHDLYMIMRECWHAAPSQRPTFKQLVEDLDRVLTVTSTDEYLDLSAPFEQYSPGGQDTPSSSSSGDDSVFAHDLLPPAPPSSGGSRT
# Excerpt: as §1
# Fak = Fak (Homo sapiens, UniProt Q05397); assay: Radiometric filter binding kinase assay; type: biochemical
# Excerpt: as §1
# Flt-3 = Flt-3 (Homo sapiens, UniProt P36888); assay: Radiometric filter binding kinase assay; type: biochemical
# Flt-3, sequence (P36888 27-993, species assumed): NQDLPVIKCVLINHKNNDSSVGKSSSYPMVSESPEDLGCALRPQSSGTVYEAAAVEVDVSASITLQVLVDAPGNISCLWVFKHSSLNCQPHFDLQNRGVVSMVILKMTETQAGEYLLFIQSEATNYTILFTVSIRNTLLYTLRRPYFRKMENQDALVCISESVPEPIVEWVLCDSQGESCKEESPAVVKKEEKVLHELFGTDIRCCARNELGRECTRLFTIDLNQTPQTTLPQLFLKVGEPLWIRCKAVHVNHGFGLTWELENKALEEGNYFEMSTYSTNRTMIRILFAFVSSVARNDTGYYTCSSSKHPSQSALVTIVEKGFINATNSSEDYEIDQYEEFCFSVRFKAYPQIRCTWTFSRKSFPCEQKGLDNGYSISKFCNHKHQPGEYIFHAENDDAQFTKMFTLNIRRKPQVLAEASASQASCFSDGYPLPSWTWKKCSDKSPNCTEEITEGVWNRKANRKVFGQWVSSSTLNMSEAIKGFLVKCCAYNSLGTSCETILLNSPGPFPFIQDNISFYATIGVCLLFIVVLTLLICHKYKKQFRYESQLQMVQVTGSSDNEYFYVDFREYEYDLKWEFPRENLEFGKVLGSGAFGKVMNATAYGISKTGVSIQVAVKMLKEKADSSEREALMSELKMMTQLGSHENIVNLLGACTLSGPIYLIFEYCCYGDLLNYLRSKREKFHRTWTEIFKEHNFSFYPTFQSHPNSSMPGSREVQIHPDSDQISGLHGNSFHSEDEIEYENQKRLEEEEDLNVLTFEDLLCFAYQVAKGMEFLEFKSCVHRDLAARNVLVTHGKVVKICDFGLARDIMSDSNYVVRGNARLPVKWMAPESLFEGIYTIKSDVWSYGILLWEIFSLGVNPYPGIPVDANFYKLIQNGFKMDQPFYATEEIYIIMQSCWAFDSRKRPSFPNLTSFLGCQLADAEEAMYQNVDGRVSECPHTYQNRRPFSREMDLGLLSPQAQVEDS
# Excerpt: as §1
# HER-1 = HER-1 (Homo sapiens, UniProt P00533); assay: Radiometric filter binding kinase assay; type: biochemical
# Excerpt: as §1
# Jak2 = Jak2 (Homo sapiens, UniProt O60674); assay: Radiometric filter binding kinase assay; type: biochemical
# Excerpt: as §1
# KDR = KDR (Homo sapiens, UniProt P35968); assay: Radiometric filter binding kinase assay; type: biochemical
# Excerpt: as §1
# PDK1 = PDK1 (Homo sapiens, UniProt O15530); assay: Radiometric filter binding kinase assay; type: biochemical
# PDK1, sequence (O15530 whole entry): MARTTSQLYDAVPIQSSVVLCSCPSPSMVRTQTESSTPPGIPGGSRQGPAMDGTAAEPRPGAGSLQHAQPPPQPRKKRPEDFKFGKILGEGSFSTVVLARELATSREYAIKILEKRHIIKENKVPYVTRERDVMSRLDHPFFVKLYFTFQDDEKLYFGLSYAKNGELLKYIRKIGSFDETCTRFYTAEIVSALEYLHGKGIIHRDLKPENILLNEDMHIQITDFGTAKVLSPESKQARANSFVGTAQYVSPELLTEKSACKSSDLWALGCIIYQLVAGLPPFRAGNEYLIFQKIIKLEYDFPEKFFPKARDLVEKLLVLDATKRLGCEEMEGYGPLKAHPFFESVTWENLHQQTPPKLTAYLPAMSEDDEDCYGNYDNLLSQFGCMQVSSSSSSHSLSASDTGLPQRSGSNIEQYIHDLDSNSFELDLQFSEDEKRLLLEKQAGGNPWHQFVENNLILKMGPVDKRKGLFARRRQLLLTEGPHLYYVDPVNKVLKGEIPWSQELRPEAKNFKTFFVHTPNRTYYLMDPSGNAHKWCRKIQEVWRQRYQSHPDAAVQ
# Excerpt: as §1
# PKB = assay: Radiometric filter binding kinase assay; type: biochemical
# PKB, sequence (P31749 whole entry): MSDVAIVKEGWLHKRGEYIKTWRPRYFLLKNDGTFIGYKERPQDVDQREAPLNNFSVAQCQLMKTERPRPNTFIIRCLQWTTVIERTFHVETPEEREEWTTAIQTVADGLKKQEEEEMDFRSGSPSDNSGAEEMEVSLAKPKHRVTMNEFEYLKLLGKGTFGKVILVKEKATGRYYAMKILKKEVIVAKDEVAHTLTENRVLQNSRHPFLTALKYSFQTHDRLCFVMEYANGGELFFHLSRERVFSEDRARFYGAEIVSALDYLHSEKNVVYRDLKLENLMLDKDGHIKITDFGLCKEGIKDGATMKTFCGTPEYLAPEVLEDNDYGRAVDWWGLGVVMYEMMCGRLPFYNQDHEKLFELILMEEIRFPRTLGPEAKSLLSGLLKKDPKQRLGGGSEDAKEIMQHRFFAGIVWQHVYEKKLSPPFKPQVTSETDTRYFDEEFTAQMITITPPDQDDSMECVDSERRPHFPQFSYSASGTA
# Excerpt: as §1
# Ret = Ret (Homo sapiens, UniProt P07949); assay: Radiometric filter binding kinase assay; type: biochemical; conditions: mean of two independent experiments ± SD
# Ret, sequence (P07949 29-1114, species assumed): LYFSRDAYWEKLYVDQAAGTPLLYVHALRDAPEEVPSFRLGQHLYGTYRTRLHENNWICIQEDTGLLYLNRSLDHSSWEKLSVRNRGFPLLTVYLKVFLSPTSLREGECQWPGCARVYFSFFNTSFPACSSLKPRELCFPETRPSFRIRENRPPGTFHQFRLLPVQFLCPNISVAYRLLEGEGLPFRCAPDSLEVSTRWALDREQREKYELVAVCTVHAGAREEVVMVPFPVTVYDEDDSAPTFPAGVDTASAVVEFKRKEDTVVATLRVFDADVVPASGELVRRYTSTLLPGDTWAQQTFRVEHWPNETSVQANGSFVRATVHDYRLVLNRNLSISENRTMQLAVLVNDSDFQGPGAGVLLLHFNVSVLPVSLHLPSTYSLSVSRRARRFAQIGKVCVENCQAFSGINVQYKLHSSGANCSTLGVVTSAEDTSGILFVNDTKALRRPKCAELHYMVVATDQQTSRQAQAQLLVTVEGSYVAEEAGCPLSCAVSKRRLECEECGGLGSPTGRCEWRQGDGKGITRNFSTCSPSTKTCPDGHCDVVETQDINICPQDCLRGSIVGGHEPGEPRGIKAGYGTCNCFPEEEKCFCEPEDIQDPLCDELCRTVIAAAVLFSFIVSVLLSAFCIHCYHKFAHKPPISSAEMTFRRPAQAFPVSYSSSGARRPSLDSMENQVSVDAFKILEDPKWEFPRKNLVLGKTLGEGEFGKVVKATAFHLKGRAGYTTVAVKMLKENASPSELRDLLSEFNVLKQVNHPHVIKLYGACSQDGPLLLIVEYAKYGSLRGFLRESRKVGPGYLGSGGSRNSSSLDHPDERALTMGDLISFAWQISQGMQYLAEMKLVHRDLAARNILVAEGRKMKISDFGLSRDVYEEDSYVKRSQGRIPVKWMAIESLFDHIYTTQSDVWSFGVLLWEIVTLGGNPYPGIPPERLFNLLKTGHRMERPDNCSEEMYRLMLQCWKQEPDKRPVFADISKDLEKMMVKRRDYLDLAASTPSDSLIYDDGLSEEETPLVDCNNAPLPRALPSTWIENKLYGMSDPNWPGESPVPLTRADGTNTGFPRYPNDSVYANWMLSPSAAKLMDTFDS
# Excerpt: as §1
# c-Abl = c-Abl (Homo sapiens, UniProt P00519); assay: Radiometric filter binding kinase assay; type: biochemical
# Excerpt: as §1
# c-Abl-T315I = c-Abl-T315I (Homo sapiens, UniProt P00519, T315I); assay: Radiometric filter binding kinase assay; type: biochemical
# Excerpt: as §1
# c-Met = c-Met (Homo sapiens, UniProt P08581); assay: Radiometric filter binding kinase assay; type: biochemical
# Excerpt: as §1
# c-Src = c-Src (Homo sapiens, UniProt P12931); assay: Radiometric filter binding kinase assay; type: biochemical; conditions: mean of two independent experiments ± SD
# c-Src, sequence (P12931 whole entry, species assumed): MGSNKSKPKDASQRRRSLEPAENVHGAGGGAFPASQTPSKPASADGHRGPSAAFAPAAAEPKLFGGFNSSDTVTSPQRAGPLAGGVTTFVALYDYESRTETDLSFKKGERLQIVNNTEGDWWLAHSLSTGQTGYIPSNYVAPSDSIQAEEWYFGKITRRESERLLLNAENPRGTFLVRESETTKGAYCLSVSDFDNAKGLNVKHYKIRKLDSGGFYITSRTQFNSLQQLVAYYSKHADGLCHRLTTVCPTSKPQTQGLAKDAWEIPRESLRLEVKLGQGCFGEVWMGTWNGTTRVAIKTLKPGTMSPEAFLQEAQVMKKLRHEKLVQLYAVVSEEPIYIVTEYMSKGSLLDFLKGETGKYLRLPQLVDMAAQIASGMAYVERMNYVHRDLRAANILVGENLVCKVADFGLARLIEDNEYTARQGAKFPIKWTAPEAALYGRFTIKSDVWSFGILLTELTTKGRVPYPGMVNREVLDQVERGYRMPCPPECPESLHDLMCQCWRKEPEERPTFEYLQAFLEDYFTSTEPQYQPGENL
# Excerpt: as §1
smiles,measurement,setting,value
CCc1nc2nc(Nc3ccc4nc(OCCN5CCOCC5)ccc4c3)nc(NC(C)(C)C)c2[nH]1 [QAP 1],IC50,HeLa T-Rex cells,~1.1 µM
same,IC50,Axl,> 10 µM
same,IC50,BRAF-V600E,> 10 µM
same,IC50,CDK1/CycB,> 10 µM
same,IC50,EphB4,> 10 µM
same,IC50,FGFR3-K560E,> 10 µM
same,IC50,Fak,> 10 µM
same,IC50,Flt-3,> 10 µM
same,IC50,HER-1,> 10 µM
same,IC50,Jak2,> 10 µM
same,IC50,KDR,> 10 µM
same,IC50,PDK1,> 10 µM
same,IC50,PKB,> 10 µM
same,IC50,Ret,1.35 ± 0.05 µM
same,IC50,c-Abl,> 10 µM
same,IC50,c-Abl-T315I,> 10 µM
same,IC50,c-Met,> 10 µM
same,IC50,c-Src,1.7 ± 0.5 µM
